Experiment: xn = mol fraction of the nth substance listed
Conditions: 100 kPa

CCCC[n+]1ccn(C)c1.O=S(=O)([O-])C(F)(F)F + COCCOCCO
x1 = 1
Conditions | speed of sound [m/s]
298.15 K | 1392.8
308.15 K | 1370.6
313.15 K | 1359.6

COCCOCCO + CCCC[n+]1ccn(C)c1.O=S(=O)([O-])C(F)(F)F
speed of sound [m/s]
Conditions | x2 = 0 | x2 = 0.1 | x2 = 0.2056 | x2 = 0.3064 | x2 = 0.3986 | x2 = 0.4904 | x2 = 0.5981 | x2 = 0.6945 | x2 = 0.7795 | x2 = 0.9015
298.15 K | 1415.8 | 1423.6 | 1420.5 | 1415.5 | 1410.7 | 1406.3 | – | 1398.8 | 1396.8 | 1394.5
303.15 K | – | 1408.2 | 1406.1 | 1401.6 | 1397.5 | – | 1390 | 1386.9 | – | 1383.3
308.15 K | – | 1392.4 | 1391.5 | 1387.8 | 1384.4 | 1381 | 1378 | 1375.4 | 1374 | 1372
313.15 K | 1366.4 | 1376.8 | 1376.9 | – | 1371.3 | 1368.4 | – | – | 1362.6 | 1360.9
318.15 K | – | – | – | – | – | 1356 | 1354 | 1352.2 | 1351.2 | 1349.9
323.15 K | 1333.4 | 1345.6 | 1348 | 1346.9 | 1345.5 | 1343.6 | – | 1340.7 | – | 1338.9
